For data set [1], the system named is A549 lung carcinoma cells. Kind of data set: Cell growth inhibition by cell counting (Coulter Counter), A549. It is filed as cell-based, human.
Protocol: (§1) Compounds with varying degrees of potency and specificity for PKC were investigated in A549 and MCF-7 carcinoma cells. […] To substantiate the role of PKC in the growth inhibition caused by these agents, cells were depleted of PKC by incubation with bryostatin 1 (1 jsM). […] The subcellular distribution of PKC-z-, -e and -< was measured by Western blot analysis. […] Cell growth Human A549 lung and MCF-7 breast carcinoma cells were obtained from the European Collection of Animal Cell Cul- tures (Salisbury, UK). Cells (passage number 10-30) were cultured in an atmosphere of 5% carbon dioxide, the former in Ham's F-12 medium with penicillin/streptomycin, the lat- ter in minimum essential medium (Eagle's modification) with additional pyruvate (1 mM) and non-essential amino acids. Both media were supplemented with 10% FCS (Imperial Laboratories Europe, Andover, UK, and Gibco) and gluta- mine (2 mM). Cells were subcultured routinely twice weekly to maintain logarithmic growth. For cell proliferation studies cells were seeded at a density of 1.3 x 104 cm-2 and incubat- ed with 3 ml of medium including agents, which was replen- ished at intervals of 48 h (A549) or 72 h (MCF-7). Following incubation for 4 days (A549) or 6 days (MCF-7) with drugs, cell number was assessed using a Coulter Counter Model ZM. […] Bryostatin was removed by extensive washing of the cells followed by a 2 h recovery period. […] In some experiments cells were incubated with inhibitor for 48 rather than 24 h, in this case bryostation was not removed and left in the incubate. […] Radioactivity was counted using a Packard 1500 Tricarb scintillation counter. […] The amount of protein loaded per lane was 20 tg for detection of cPKC-oc and 30 lg for nPKC-e. Detection was by enhanced chemi- luminescence generated by oxidation of luminol in the presence of hydrogen peroxide using an ECL kit from Amer- sham International.
A further data set concerns the target T1, cPKC-a (Homo sapiens, UniProt P17252).
T1 construct: these three PKC isoenzymes are abundantly ex- pressed in A549 cells; endogenous in cells; host or cells: A549 human lung carcinoma cells
Kind of data set: Subcellular localisation of cPKC-alpha in A549 cells, Western blot of cellular fractions. It is filed as cell-based.

For the next data set, the system named is A549 cells. The experiment in a line: [3H]Tdr incorporation into control (naive) A549 cells. It counts as cell-based, human.
The next data set relates to PKC-depleted A549 cells. The experiment in a line: [3H]Tdr incorporation into PKC-depleted (bryostatin 1 pretreated) A549 cells. It counts as cell-based, human.
The next data set has as its target T2, nPKC-e (Homo sapiens, UniProt Q02156).
T2 sequence (Q02156 1-737): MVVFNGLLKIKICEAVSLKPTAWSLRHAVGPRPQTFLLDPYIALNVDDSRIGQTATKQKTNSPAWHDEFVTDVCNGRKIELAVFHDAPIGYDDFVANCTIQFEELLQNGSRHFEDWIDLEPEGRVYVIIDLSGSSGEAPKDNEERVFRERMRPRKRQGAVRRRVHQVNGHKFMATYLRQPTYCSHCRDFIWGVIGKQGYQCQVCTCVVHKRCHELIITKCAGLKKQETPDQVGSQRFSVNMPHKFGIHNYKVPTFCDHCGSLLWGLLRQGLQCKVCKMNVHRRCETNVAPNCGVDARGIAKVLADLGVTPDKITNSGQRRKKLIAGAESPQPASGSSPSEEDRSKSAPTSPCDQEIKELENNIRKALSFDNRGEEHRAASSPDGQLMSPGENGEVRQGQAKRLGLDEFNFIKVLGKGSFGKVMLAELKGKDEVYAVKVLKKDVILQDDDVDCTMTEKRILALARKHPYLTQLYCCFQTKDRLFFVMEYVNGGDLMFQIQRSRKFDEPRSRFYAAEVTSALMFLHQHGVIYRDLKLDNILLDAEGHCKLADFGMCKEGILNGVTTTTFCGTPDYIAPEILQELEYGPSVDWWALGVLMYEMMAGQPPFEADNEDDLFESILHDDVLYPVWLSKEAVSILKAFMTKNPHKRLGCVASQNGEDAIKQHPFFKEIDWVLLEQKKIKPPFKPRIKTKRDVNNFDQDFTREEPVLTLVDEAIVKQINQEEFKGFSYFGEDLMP
Kind of data set: Subcellular localisation of nPKC-epsilon in A549 cells, Western blot of cytosolic, particulate and nuclear fractions. In general terms: A western blot detects proteins with antibodies after separation by electrophoresis.

The conditions of data set [2]: phase I trials, ref Phillip et al., 1993, Prendiville et al.; cited from earlier work.
In a further data set the test system is cPKC-a and nPKC-e. Kind of data set: PKC down-regulation in A549 cells by bryostatin 1, Western blot. It counts as cell-based, human. Particulars: bryostatin 1 at 1 (micromolar) for 24 h.
Data set [3] has as its system A549 lung carcinoma cells. Set-up: method as in Dale and Gescher, 1989; Stanwell et al., 1994. Particulars: 24 h with bryostatin 1 (1 micromolar); ref Dale and Gescher, 1989; Stanwell et al., 1994; cited from earlier work.
Where [4] appears, read: weaker enzyme inhibitors, read-out: concentrations which arrested growth.
Setting [5] is: A549 and MCF-7 cells, read-out: IC50 values for growth arrest (stronger growth inhibitors).
[6] abbreviates: control A549 cells, 24 h with inhibitor, read-out: IC50 for inhibition of [3H]Tdr incorporation.
Setting [7] is: PKC-depleted A549 cells (bryostatin 1 for 24 h, washed), 24 h with inhibitor, read-out: IC50 for inhibition of [3H]Tdr incorporation.
Where [8] appears, read: Homo sapiens, A549, weaker enzyme inhibitors, read-out: concentrations which arrested growth.
[9] abbreviates: Homo sapiens, A549, read-out: IC50 for inhibition of [3H]Tdr incorporation.
Setting [10] is: A549 cells, 30 min, with TPA 25 nM, staurosporine effect not significant (P = 0.08).

Where two headings read alike, the source gives them in different places.

Protocol for PKC-depleted A549 cells: as §1
Protocol for cPKC-a and nPKC-e: To substantiate the role of PKC in the growth inhibition caused by these agents, cells were depleted of PKC by incubation with bryostatin 1 (1 jsM). […] The subcellular distribution of PKC-z-, -e and -< was measured by Western blot analysis. […] Bryostatin was removed by extensive washing of the cells followed by a 2 h recovery period. […] In some experiments cells were incubated with inhibitor for 48 rather than 24 h, in this case bryostation was not removed and left in the incubate. […] The amount of protein loaded per lane was 20 tg for detection of cPKC-oc and 30 lg for nPKC-e. Detection was by enhanced chemi- luminescence generated by oxidation of luminol in the presence of hydrogen peroxide using an ECL kit from Amer- sham International.

As for `COc1c(C[C@@H](C)OC(=O)Oc2ccc(O)cc2)c2c3c(C[C@@H](C)OC(=O)c4ccccc4)c(OC)c(=O)c4c(O)cc(OC)c(c5c(OC)cc(O)c(c1=O)c52)c43` [Calphostin C, calphostin C], the IC50 in data set [1] (Homo sapiens, A549 and MCF-7 cells, read-out: IC50 values for growth arrest (stronger growth inhibitors)) is < 1 µM. In addition, the “effect on TPA-induced cPKC-a redistribution” value (shortened to “effect”) on cPKC-a is reported as “failed to affect TPA-induced cPKC-a redistribution”.

With `CCCCCCCCCCCCC(=O)N1CCCCC1CNC(=O)C(N)CCCCN` (stereo not drawn) [NPC 15-437, 2,6-Diamino-N-([l-(1-oxotridecyl)-2-piperidinyl]methyl)hexanamide], the IC50 in data set [1] (setting [4]) was > 1 µM.

Take `Cn1cc(C2=C(c3cn(CCCSC(=N)N)c4ccccc34)C(=O)NC2=O)c2ccccc21` [RO 31-8220]: the IC50 in data set [1] (setting [5]) was < 1 µM; in the data set with A549 cells (setting [6]), 1.9 µM; in the data set on PKC-depleted A549 cells (setting [7]), 1.6 µM. Also, the “concentration which changed nPKC-e localisation significantly” value on nPKC-e is 0.1 pM. For the same compound, the “effect” value on cPKC-a is “failed to affect TPA-induced cPKC-a redistribution”.

Regarding `CCCCCCCCCCCCC/C=C/[C@@H](O)[C@H](CO)[N+](C)(C)C` [TMS, trimethylsphingosine], the IC50 in data set [1] (setting [4]) was > 1 µM.

With `CC1CNCCN1S(=O)(=O)c1cccc2cnccc12` (stereo not drawn) [H-7, 1-(5-Isoquinolinesulfonyl)-2-methylpiperazine], the IC50 is > 1 µM in data set [1] (setting [8]), 32 µM in the data set with A549 cells (setting [9]) and 20 µM with PKC-depleted A549 cells (setting [9]). In addition, the “effect” value at cPKC-a is given as “failed to affect TPA-induced cPKC-a redistribution”.

Regarding `CCC/C=C/C=C/C(=O)O[C@H]1/C(=C/C(=O)OC)C[C@H]2C[C@H]([C@@H](C)O)OC(=O)C[C@H](O)C[C@@H]3C[C@H](OC(C)=O)C(C)(C)[C@](O)(C[C@@H]4C/C(=C/C(=O)OC)C[C@H](/C=C/C(C)(C)[C@]1(O)O2)O4)O3` [bryostatin 1], the dose-limiting toxicity result in data set [2] is reported as “myalgia”. Besides, in the data set with cPKC-a and nPKC-e, the “down-regulation of cPKC-a and nPKC-e” value is “completely down-regulated”. Moreover, the “growth inhibition under PKC depletion conditions” value in data set [3] was “negligible”.

Consider `CN[C@@H]1C[C@H]2O[C@@](C)([C@@H]1OC)n1c3ccccc3c3c4c(c5c6ccccc6n2c5c31)C(=O)NC4` [Staurosporine, staurosporine], for which the IC50 in the data set on A549 cells (setting [9]) came to 0.0012 µM.

On to `CO[C@@H]1[C@H](N(C)C(=O)c2ccccc2)C[C@H]2O[C@]1(C)n1c3ccccc3c3c4c(c5c6ccccc6n2c5c31)C(=O)NC4` [CGP 41251], for which the “effect” value on cPKC-a (setting [10]) is given as “failed to affect TPA-induced cPKC-a redistribution”.

For `CCCCCCCCCCCCCCCCOP(=O)([O-])OCC[N+](C)(C)C` [Miltefosine, Hexadecylphosphocholine], the IC50 in data set [1] (setting [8]) was > 1 µM. In addition, the “effect” value at cPKC-a (setting [10]) was “failed to affect TPA-induced cPKC-a redistribution”.

Consider `CN[C@@H]1C[C@H]2O[C@@](C)([C@@H]1OC)n1c3ccccc3c3c4c(c5c6ccccc6n2c5c31)C(=O)N[C@H]4O` [UCN-01], for which the IC50 is < 1 µM in data set [1] (setting [5]), 0.068 µM with A549 cells (setting [6]) and 0.047 µM in the data set on PKC-depleted A549 cells (setting [7]). Besides, the “concentration required for translocation relative to IC50 for growth of A549 cells” value on nPKC-e (A549) is listed as 2- to 3 fold. The “concentration which changed nPKC-e localisation significantly” value at nPKC-e (A549 cells, 30 min, P<0.05 vs control) was determined as 0.1 pM. Moreover, the “effect” value on cPKC-a (setting [10]) is listed as “behaved similarly”. Also, the “blots in which TPA-induced cPKC-a translocation was augmented” value on cPKC-a (A549 cells, UCN-01 at 1 (micromolar) with TPA 25 nM) is recorded as “three out of six”.

In the case of `CN(C)CCCn1cc(C2=C(c3c[nH]c4ccccc34)C(=O)NC2=O)c2ccccc21` [GF 109203X], the IC50 in data set [1] (A549 and MCF-7 cells, read-out: IC50 for interference with cell growth) is > 7 µM. Also, the “concentration which changed nPKC-e localisation significantly” value on nPKC-e was 0.1 pM. Moreover, the “effect” value at cPKC-a was “failed to affect TPA-induced cPKC-a redistribution”.

The values above are taken from article PMC2033742, “Comparison of ability of protein kinase C inhibitors to arrest cell growth and to alter cellular protein kinase C localisation” (British Journal of Cancer, 1995).
